According to PubChem BioAssay AID2060500 (Molecular Pharmacology Branch, DTP, NCI, 2025):

System: 596521-263-R-J1-PDC complex spheroids, viability % of control
Assay: Anticancer human tumor 596521-263-R-J1-PDC patient-derived soft tissue sarcoma cell line growth inhibition [GQUAD]
Settings: for IC50: curve of first compound; for viability, T/C: stronger effect = lower value
Summary of the method: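 Viability of tumor cells grown as complex spheroids with endothelial and stromal cells, exposed to drug combinations. Top concentration at or near clinical Cmax (else 10 microM), diluted in half-log increments.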

[1] = second compound 0.0316 µM, first compound 0.0316 µM
[2] = second compound 0.0316 µM, first compound 0.316 µM
[3] = second compound 0.1 µM, first compound 0.0316 µM
[4] = second compound 0.1 µM, first compound 0.316 µM
[5] = second compound 0.316 µM, first compound 0.0316 µM
[6] = second compound 0.316 µM, first compound 0.316 µM
[7] = second compound 1 µM, first compound 0.0316 µM
[8] = second compound 1 µM, first compound 0.316 µM
[9] = second compound 3.16 µM, first compound 0.0316 µM
[10] = second compound 3.16 µM, first compound 0.316 µM
[11] = second compound 10 µM, first compound 0.0316 µM
[12] = second compound 10 µM, first compound 0.316 µM
[13] = second compound 0.0316 µM, first compound 0.1 µM
[14] = second compound 0.0316 µM, first compound 1 µM
[15] = second compound 0.0316 µM, first compound 3.16 µM
[16] = second compound 0.0316 µM, first compound 10 µM
[17] = second compound 0.1 µM, first compound 0.1 µM
[18] = second compound 0.1 µM, first compound 1 µM
[19] = second compound 0.1 µM, first compound 3.16 µM
[20] = second compound 0.1 µM, first compound 10 µM
[21] = second compound 0.316 µM, first compound 0.1 µM
[22] = second compound 0.316 µM, first compound 1 µM
[23] = second compound 0.316 µM, first compound 3.16 µM
[24] = second compound 0.316 µM, first compound 10 µM
[25] = second compound 1 µM, first compound 0.1 µM
[26] = second compound 1 µM, first compound 1 µM
[27] = second compound 1 µM, first compound 3.16 µM
[28] = second compound 1 µM, first compound 10 µM
[29] = second compound 3.16 µM, first compound 0.1 µM
[30] = second compound 3.16 µM, first compound 1 µM
[31] = second compound 3.16 µM, first compound 3.16 µM
[32] = second compound 3.16 µM, first compound 10 µM
[33] = second compound 10 µM, first compound 0.1 µM
[34] = second compound 10 µM, first compound 1 µM
[35] = second compound 10 µM, first compound 3.16 µM
[36] = second compound 10 µM, first compound 10 µM
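Further: spheroids exposed to drugs for 7 days before viability reading.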
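Wherever viability, T/C is given: 100% = DMSO vehicle control viability.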

CC[C@@]1(O)C(=O)OCc2c1cc1n(c2=O)Cc2cc3c(CN(C)C)c(O)ccc3nc2-1 + Cc1[nH]c2ccc(F)cc2c1-c1nc2c3cccnc3c3ncccc3c2[nH]1
IC50 (second compound 0.0316 µM): > 316 nM
IC50 (second compound 0.1 µM): > 316 nM
IC50 (second compound 0.316 µM): 291 nM
IC50 (second compound 1 µM): > 316 nM
IC50 (second compound 3.16 µM): 277 nM
IC50 (second compound 10 µM): > 316 nM
viability, T/C (second compound 0.0316 µM, first compound 0.000999 µM): 98.3%
viability, T/C (second compound 0.0316 µM, first compound 0.00316 µM): 100%
viability, T/C (second compound 0.0316 µM, first compound 0.00999 µM): 84%
viability, T/C [1]: 69.5%
viability, T/C (second compound 0.0316 µM, first compound 0.0999 µM): 64.3%
viability, T/C [2]: 58.7%
viability, T/C (second compound 0.1 µM, first compound 0.000999 µM): 103%
viability, T/C (second compound 0.1 µM, first compound 0.00316 µM): 99.1%
viability, T/C (second compound 0.1 µM, first compound 0.00999 µM): 92.5%
viability, T/C [3]: 65.6%
viability, T/C (second compound 0.1 µM, first compound 0.0999 µM): 59.6%
viability, T/C [4]: 53.5%
viability, T/C (second compound 0.316 µM, first compound 0.000999 µM): 96.8%
viability, T/C (second compound 0.316 µM, first compound 0.00316 µM): 103%
viability, T/C (second compound 0.316 µM, first compound 0.00999 µM): 90.7%
viability, T/C [5]: 78.5%
viability, T/C (second compound 0.316 µM, first compound 0.0999 µM): 61%
viability, T/C [6]: 49%
viability, T/C (second compound 1 µM, first compound 0.000999 µM): 103%
viability, T/C (second compound 1 µM, first compound 0.00316 µM): 109%
viability, T/C (second compound 1 µM, first compound 0.00999 µM): 79.7%
viability, T/C [7]: 65.7%
viability, T/C (second compound 1 µM, first compound 0.0999 µM): 58%
viability, T/C [8]: 51.4%
viability, T/C (second compound 3.16 µM, first compound 0.000999 µM): 86.4%
viability, T/C (second compound 3.16 µM, first compound 0.00316 µM): 84.1%
viability, T/C (second compound 3.16 µM, first compound 0.00999 µM): 81.6%
viability, T/C [9]: 67.6%
viability, T/C (second compound 3.16 µM, first compound 0.0999 µM): 63.2%
viability, T/C [10]: 48.2%
viability, T/C (second compound 10 µM, first compound 0.000999 µM): 85.5%
viability, T/C (second compound 10 µM, first compound 0.00316 µM): 89.9%
viability, T/C (second compound 10 µM, first compound 0.00999 µM): 70.4%
viability, T/C [11]: 59.3%
viability, T/C (second compound 10 µM, first compound 0.0999 µM): 60.9%
viability, T/C [12]: 50.3%

COc1cccc2c1C(=O)c1c(O)c3c(c(O)c1C2=O)CC(O)(C(=O)CO)CC3OC1CC(N)C(O)C(C)O1 (stereo not drawn) + CN(C)c1ccc(Nc2c3ccc(NC(=O)CCN4CCCC4)cc3nc3cc(NC(=O)CCN4CCCC4)ccc23)cc1
IC50 (second compound 0.0316 µM): 687 nM
IC50 (second compound 0.1 µM): 910 nM
IC50 (second compound 0.316 µM): 722 nM
IC50 (second compound 1 µM): 787 nM
IC50 (second compound 3.16 µM): 1010 nM
IC50 (second compound 10 µM): 408 nM
viability, T/C [1]: 96.9%
viability, T/C [13]: 75.1%
viability, T/C [2]: 55.8%
viability, T/C [14]: 54.9%
viability, T/C [15]: 29.7%
viability, T/C [16]: 3.98%
viability, T/C [3]: 94.2%
viability, T/C [17]: 73.8%
viability, T/C [4]: 70.3%
viability, T/C [18]: 47.7%
viability, T/C [19]: 29.4%
viability, T/C [20]: 6.1%
viability, T/C [5]: 108%
viability, T/C [21]: 80.6%
viability, T/C [6]: 53.1%
viability, T/C [22]: 51.5%
viability, T/C [23]: 29.6%
viability, T/C [24]: 5.16%
viability, T/C [7]: 104%
viability, T/C [25]: 76.7%
viability, T/C [8]: 58.5%
viability, T/C [26]: 55.8%
viability, T/C [27]: 31%
viability, T/C [28]: 5.6%
viability, T/C [9]: 89.5%
viability, T/C [29]: 84.5%
viability, T/C [10]: 55.6%
viability, T/C [30]: 56.6%
viability, T/C [31]: 30.3%
viability, T/C [32]: 6.32%
viability, T/C [11]: 67.3%
viability, T/C [33]: 59.1%
viability, T/C [12]: 47.7%
viability, T/C [34]: 42.9%
viability, T/C [35]: 30.8%
viability, T/C [36]: 5.21%

COc1ccc([C@@H](O)c2cc(-c3ncnc4cc(N5CCOCC5)ccc34)c(F)cc2Cl)nn1 + Cc1[nH]c2ccc(F)cc2c1-c1nc2c3cccnc3c3ncccc3c2[nH]1
IC50 (second compound 0.0316 µM): > 10000 nM
IC50 (second compound 0.1 µM): > 10000 nM
IC50 (second compound 0.316 µM): > 10000 nM
IC50 (second compound 1 µM): > 10000 nM
IC50 (second compound 3.16 µM): > 10000 nM
IC50 (second compound 10 µM): 6140 nM
viability, T/C [1]: 96.5%
viability, T/C [13]: 89%
viability, T/C [2]: 94.6%
viability, T/C [14]: 77.9%
viability, T/C [15]: 69.3%
viability, T/C [16]: 52%
viability, T/C [3]: 98.6%
viability, T/C [17]: 89.1%
viability, T/C [4]: 97.7%
viability, T/C [18]: 77.5%
viability, T/C [19]: 64.7%
viability, T/C [20]: 55.4%
viability, T/C [5]: 94.2%
viability, T/C [21]: 105%
viability, T/C [6]: 95.9%
viability, T/C [22]: 89.6%
viability, T/C [23]: 72.2%
viability, T/C [24]: 56.5%
viability, T/C [7]: 94.7%
viability, T/C [25]: 93.8%
viability, T/C [8]: 95.8%
viability, T/C [26]: 81.2%
viability, T/C [27]: 69.1%
viability, T/C [28]: 50.3%
viability, T/C [9]: 89.1%
viability, T/C [29]: 90.9%
viability, T/C [10]: 83%
viability, T/C [30]: 71.3%
viability, T/C [31]: 64.5%
viability, T/C [32]: 50.3%
viability, T/C [11]: 92.2%
viability, T/C [33]: 87.7%
viability, T/C [12]: 82%
viability, T/C [34]: 68.8%
viability, T/C [35]: 61.7%
viability, T/C [36]: 42.4%

CC1COCCN1c1cc(C2(S(C)(=N)=O)CC2)nc(-c2ccnc3[nH]ccc23)n1 (stereo not drawn) + Cc1cnc(CNC(=O)c2c(=O)c3ccc(N4CCCN(C)CC4)nc3n3c2sc2ccccc23)cn1
IC50 (second compound 0.0316 µM): 8980 nM
IC50 (second compound 0.1 µM): 6390 nM
IC50 (second compound 0.316 µM): > 10000 nM
IC50 (second compound 1 µM): 6210 nM
IC50 (second compound 3.16 µM): 103 nM
IC50 (second compound 10 µM): < 31.6 nM
viability, T/C [1]: 91.2%
viability, T/C [13]: 101%
viability, T/C [2]: 86.4%
viability, T/C [14]: 87.3%
viability, T/C [15]: 67.1%
viability, T/C [16]: 48.3%
viability, T/C [3]: 84%
viability, T/C [17]: 93.5%
viability, T/C [4]: 76.1%
viability, T/C [18]: 72.5%
viability, T/C [19]: 59.4%
viability, T/C [20]: 44.2%
viability, T/C [5]: 83%
viability, T/C [21]: 75.5%
viability, T/C [6]: 66.7%
viability, T/C [22]: 72.1%
viability, T/C [23]: 55.6%
viability, T/C [24]: 51.8%
viability, T/C [7]: 58%
viability, T/C [25]: 64.6%
viability, T/C [8]: 66.7%
viability, T/C [26]: 56.8%
viability, T/C [27]: 53%
viability, T/C [28]: 47.4%
viability, T/C [9]: 57%
viability, T/C [29]: 50.5%
viability, T/C [10]: 48.1%
viability, T/C [30]: 45.1%
viability, T/C [31]: 51.9%
viability, T/C [32]: 47%
viability, T/C [11]: 46.6%
viability, T/C [33]: 41.9%
viability, T/C [12]: 49.3%
viability, T/C [34]: 39.4%
viability, T/C [35]: 40.3%
viability, T/C [36]: 37.6%
